These results are taken from patent publication US20070020183A1, “Perfluoroalkyl-containing complexes, process for their production as well as their use” (priority 2005, published 2007).

For data set [1], the system named is inflammatory muscle lesions and necrotic areas. Description: MRT visualization of inflammatory lesions and necrotic areas in rats. It is filed as in vivo. The settings on record: i.v. 50 μmol of Gd/kg, T1-weighted turbo-spin-echo 1.5 T. The method, then: By way of example, the pictures of FIG. 3 show MR images of inflammatory muscle lesions as well as necrotic areas at different points in time after intravenous administration of 50 μmol of Gd/kg of body weight of gadolinium complex XIV (title substance of Example 4g) in rats. The inflammation/necrosis was induced by intravenous administration of Rose Bengal (20 mg/kg; 24 hours before the administration of contrast medium) and subsequent 20-minute irradiation with a xenon lamp.

Data set [2] has as its system iliac lymph nodes and i.m.-implanted VX2 tumors. In words: MRT visualization of lymph node metastases and primary tumors in VX2-tumor-carrying rabbits. It is filed as in vivo. The note with it: rabbits with VX2 tumors, i.v. 50 μmol of Gd/kg. The protocol: The pictures of FIG. 1 show MR images of iliac lymph nodes precontrast as well as up to 24 hours after intravenous administration of 50 μmol of Gd/kg of body weight of gadolinium complex VIII (title substance of Example 16c) in rabbits with i.m.-implanted VX2 tumors. […] Zones where there was no signal rise within the lymph node were diagnosed as metastases and confirmed histologically (H/E staining of the lymph node sections).
At later times (24 hours p.i.), this enhancement also propagates toward the center of the tumor.

A short description of data set [3]: Plasma kinetics after intravenous administration in rats (ICP-AES). It is filed as in vivo. The note with it: i.v., 50 μmol of total gadolinium/kg of body weight. The protocol:
After intravenous administration of 50 μmol of total gadolinium/kg of body weight of the gadolinium complexes (I-X) in rats (n=3), blood samples were taken via a catheter in the common carotid artery at different points in time ([…] to 24 hours p.i.), the metal content was determined by means of atomic emission spectrometry (ICP-AES) and converted to plasma values via a conversion factor (0.625). The elimination half-life was calculated by means of special software (WinNonlin) from the plasma concentrations.

The test system of another data set is mice. In words: Acute toxicity after one-time intravenous administration in mice. It is filed as in vivo. The settings on record: one-time i.v., observation period of 7 days, determined preliminarily. The protocol:
After intravenous administration of the gadolinium complexes (I-X) in mice (n=3; rate of injection: 2 ml/min), the acute systemic compatibility (LD50) was determined preliminarily. In each case, several dosages with an observation period of 7 days were examined. The acute toxicities that are to be expected can be seen in Table 1.

Data set [4] can be described thus: Excretion after intravenous administration in rats (ICP-AES). The format is in vivo. The note with it: i.v., 50 μmol of total gadolinium/kg of body weight, 14 days after administration. The source says: After intravenous administration of 50 μmol of total gadolinium/kg of body weight of the gadolinium complexes (I-X) in rats (n=3), the metal content was l determined in fractions up to 14 days after administration by means of atomic emission spectrometry (ICP-AES) in the excretion media of urine and feces, as well as in the body (the rest of the body).

Another data set has as its system arteriosclerotic plaque. In words: MRT visualization of arteriosclerotic plaque. It is filed as in vivo, Watanabe rabbits (WHHL rabbits). The note with it: WHHL rabbits, i.v. 50 μmol or 100 μmol of Gd/kg, 6 or 24 hours, T1-weighted IR-TFL; not in vascular wall of healthy control animals. The protocol: The pictures of FIG. 2 show MR images of the aorta 6 or 24 hours after intravenous administration of 50 μmol or 100 μmol of Gd/kg of body weight of gadolinium complex I (title substance of Example 1f), gadolinium complex IV (title substance of Example 11e), and gadolinium complex VIII (title substance of Example 16c) in Watanabe rabbits (WHHL rabbits; genetically-induced arteriosclerosis) and in control animals without arteriosclerosis (white New Zealands). […] The localization of the plaque, especially in the aortic arch as well as in the vascular passages, was confirmed by means of Sudan-3 staining. With this test, the suitability of the compounds according to the invention as markers for arteriosclerotic plaque could be shown.

The nature of data set [5]: Relaxivity in water (NMR pulse spectrometer Minispec PC 20). It is filed as physicochemical. The settings on record: 40° C., 0.47 T. The protocol:
The T1 and T2 relaxation times of water and plasma (from cows) with increasing concentrations of the gadolinium complexes (I-XIII) contained therein were determined at 40° C. with use of an NMR pulse spectrometer (Minispec PC 20) at 0.47 T, and the relaxivity was determined.

For data set [6] the following is noted: in vivo; cited from earlier work.

In the case of `CC(C(=O)NCC(=O)NCCCC[C@H](NC(=O)CO[C@H]1O[C@H](CO)[C@@H](O)[C@H](O)[C@@H]1O)C(=O)NCCCC(F)(F)C(F)(F)C(F)(F)C(F)(F)C(F)(F)C(F)(F)C(F)(C(F)(F)F)C(F)(F)F)N1CCN(CC(=O)[O-])CCN(CC(=O)[O-])CCN(CC(=O)[O-])CC1.[Gd+3]` (stereo partly drawn) [Gadolinium complex XIV, Gadolinium complex of 6-N-[1,4,7-tris-(carboxylatomethyl)-1,4,7,10-tetraazacyclododecane-10-N-(pentanoyl-3-aza-4-oxo-5-methyl-5-yl)]-2-N-(1-O-α-d-carbonylmethylmannopyranose)-L-lysine-[(1H,1H,2H,2H-perfluoro-9-methyldecyl)-methyl]-amide], in data set [1] (24 hours p.i.), the “MR signal in the central necrosis” value is “delayed signal rise”. Also, in data set [1] (up to 60 minutes p.i.), the “MR signal in inflammatorily altered tissue” value was “strong signal rise”.

Consider `CC(C(=O)NCC(=O)N[C@@H](CCCCNC(=O)CO[C@H]1O[C@H](CO)[C@@H](O)[C@H](O)[C@@H]1O)C(=O)N(C)CCC(F)(F)C(F)(F)C(F)(F)C(F)(F)C(F)(F)C(F)(F)C(F)(F)C(F)(F)F)N1CCN(CC(=O)[O-])CCN(CC(=O)[O-])CCN(CC(=O)[O-])CC1.[Gd+3]` (stereo partly drawn) [Gadolinium complex VIII, Gadolinium complex of 2-N-[1,4,7-tris-(carboxylatomethyl)-1,4,7,10-tetraazacyclododecane-10-N-(pentanoyl-3-aza-4-oxo-5-methyl-5-yl)]-6-N-(1-O-α-d-carbonylmethylmannopyranose)-L-lysine-[(1H,1H,2H,2H-perfluorodecyl)-methyl]-amide], for which the “MR signal in healthy lymph node tissue” value in data set [2] (T1-weighted turbo-spin-echo, 15 to 60 minutes p.i.) is “strong signal rise”. The “MR enhancement in the primary tumor” value in data set [2] (immediately after administration, especially in the periphery) is reported as “clear enhancement”. In addition, the “Elimination Half-Life of Blood” value in data set [3] was 4.3 h. Also, the “Gd Content of Blood 24 Hours p.i.” value in data set [3] (24 hours p.i.) is on record as 0.5%. Besides, the “LD50 Mouse” value in the data set on mice is given as “≧10 mmol/kg”. The “Body Retention 14 days” value in data set [4] is 0.0%. In addition, in the data set with arteriosclerotic plaque, the “MR signal in the arteriosclerotic plaque” value is “strong signal rise”. The “Relaxivity R1(w)” value in data set [5] is recorded as “R1(w): 20.6 l/(mmol * s)”.

On to Mn-TPPS, for which, in data set [6], the LD50 result was “approximately 0.5 mmol/kg”.
